According to article PMC6100082, “Pyridine-Ureas as Potential Anticancer Agents: Synthesis and In Vitro Biological Evaluation” (Molecules : A Journal of Synthetic Chemistry and Natural …, 2018):

Assays:
NCI 58 cell line panel = test: NCI one-dose SRB assay, whole panel / subpanel summary; format: cell-based, human
Method: (§1) The structures of all the newly prepared pyridine-ureas 8a–n were submitted to the National Cancer Institute (NCI) Developmental Therapeutic Program. Eight compounds 8b, 8d, 8e, 8i, 8j and 8l–n were selected to be examined for their in vitro growth inhibitory activity. The anticancer assays were carried out according to the protocol of the Drug Evaluation Branch, NCI, Bethesda. The selected pyridine-ureas were tested at one dose primary anticancer assay against a panel of approximately 58 cancer lines (concentration 10^−5 M). The tested human cancer cell lines emerged from nine different cancer subtypes: leukemia, colon, melanoma, ovarian, lung, CNS, renal, breast and prostate cancers. The sulforhodamine B (SRB) protein assay was adopted to estimate the cell viability and growth. The results were reported as mean-graph of the percentage growth of the treated cells, and presented as percentage growth inhibition (GI%) caused by the test compounds (Table 2).
(§2) The anticancer assays were performed in accordance with the protocol of the Drug Evaluation Branch, NCI, Bethesda. A 48 h drug exposure protocol was used and sulforhodamine B (SRB) protein assay was applied to estimate the cell viability and growth, as reported earlier.

SF-295 = test: NCI one-dose SRB assay (CNS Cancer); format: cell-based, human
Method: as §1, §2

SNB-19 = test: NCI one-dose SRB assay (CNS Cancer); format: cell-based, human
Method: as §1, §2

SNB-75 = test: NCI one-dose SRB assay (CNS Cancer); format: cell-based, human
Method: as §1, §2

UACC-257 = test: NCI one-dose SRB assay (Melanoma); format: cell-based, human
Summary of the method: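 Tested once at 10^−5 M over 48 h. SRB protein staining measured growth. GI% values.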

IGROV1 = test: NCI one-dose SRB assay (Ovarian Cancer); format: cell-based, human
Method: as §1, §2

NCI/ADR-RES = test: NCI one-dose SRB assay (Ovarian Cancer); format: cell-based, human
Method: as §1, §2

OVCAR-3 = test: NCI one-dose SRB assay (Ovarian Cancer); format: cell-based, human
Method: as §1, §2

OVCAR-4 = test: NCI one-dose SRB assay (Ovarian Cancer); format: cell-based, human
Method: as §1, §2

OVCAR-5 = test: NCI one-dose SRB assay (Ovarian Cancer); format: cell-based, human
Method: as §1, §2

OVCAR-8 = test: NCI one-dose SRB assay (Ovarian Cancer); format: cell-based, human
Method: as §1, §2

SK-OV-3 = test: NCI one-dose SRB assay (Ovarian Cancer); format: cell-based, human
Method: as §1, §2

786-0 = test: NCI one-dose SRB assay (Renal Cancer); format: cell-based, human
Method: as §1, §2

A498 = test: NCI one-dose SRB assay (Renal Cancer); format: cell-based, human
Method: as §1, §2

RXF 393 = test: NCI one-dose SRB assay (Renal Cancer); format: cell-based, human
Method: as §1, §2

SN12C = test: NCI one-dose SRB assay (Renal Cancer); format: cell-based, human
Method: as §1, §2

TK-10 = test: NCI one-dose SRB assay (Renal Cancer); format: cell-based, human
Method: as §1, §2

UO-31 = test: NCI one-dose SRB assay (Renal Cancer); format: cell-based, human
Method: as §1, §2

DU-145 = test: NCI one-dose SRB assay (Prostate); format: cell-based, human
Method: as §1, §2

PC-3 = test: NCI one-dose SRB assay (Prostate); format: cell-based, human
Method: as §1, §2

BT-549 = test: NCI one-dose SRB assay (Breast Cancer); format: cell-based, human
Method: as §1, §2

HS 578T = test: NCI one-dose SRB assay (Breast Cancer); format: cell-based, human
Method: as §1, §2

MCF7 = test: NCI one-dose SRB assay (Breast Cancer); format: cell-based, human
Method: as §1, §2

MDA-MB-231 = test: NCI one-dose SRB assay (Breast Cancer); format: cell-based, human
Method: as §1, §2

MDA-MB-468 = test: NCI one-dose SRB assay (Breast Cancer); format: cell-based, human
Method: as §1, §2

T-47D = test: NCI one-dose SRB assay (Breast Cancer); format: cell-based, human
Method: as §1, §2

[1] = Homo sapiens, 10 μM, read-out: Percentage growth inhibition (GI%)

With COc1ccc(NC(=O)Nc2ccc(-c3ccc(OC)c(OC)c3)nc2C)cc1 [Compound 8n, 1-(6-(3,4-Dimethoxyphenyl)-2-methylpyridin-3-yl)-3-(4-methoxyphenyl) Urea] the inhibition at 10 µM (NCI 58 cell line panel; Homo sapiens, 10 μM, one dose, read-out: mean inhibition (mean % growth inhibition over NCI 58 cell line panel)) was 22 to 34%, the “Mean Growth Percent” value (NCI 58 cell line panel; One Dose Mean Graph, 1.00E-5 Molar) was 66.18% and the inhibition at 10 µM (SF-295; Homo sapiens, SF-295, 10 μM, read-out: Percentage growth inhibition (GI%)) was < 10%. For the same molecule, the “Growth Percent” value (SF-295; SF-295, 1.00E-5 Molar) was 101.75%, the inhibition at 10 µM (SNB-19; Homo sapiens, SNB-19, 10 μM, read-out: Percentage growth inhibition (GI%)) was 29% and the “Growth Percent” value (SNB-19; SNB-19, 1.00E-5 Molar) was 71.47%. The inhibition at 10 µM (SNB-75; Homo sapiens, SNB-75, 10 μM, read-out: Percentage growth inhibition (GI%)) was 53%, the “Growth Percent” value (SNB-75; SNB-75, 1.00E-5 Molar) was 47.52% and the inhibition at 10 µM (UACC-257; Homo sapiens, UACC-257, 10 μM, read-out: Percentage growth inhibition (GI%)) was 45%. For the same molecule, the “Growth Percent” value (UACC-257; UACC-257, 1.00E-5 Molar) was 55.47%, the inhibition at 10 µM (IGROV1; Homo sapiens, IGROV-1, IGROV1, 10 μM, read-out: Percentage growth inhibition (GI%)) was 23% and the “Growth Percent” value (IGROV1; IGROV1, 1.00E-5 Molar) was 77.14%. The “Growth Percent” value (NCI/ADR-RES; 1.00E-5 Molar) was 84.96%, the inhibition at 10 µM (NCI/ADR-RES; [1]) was 16% and the inhibition at 10 µM (OVCAR-3; Homo sapiens, OVCAR-3, 10 μM, read-out: Percentage growth inhibition (GI%)) was < 10%. The “Growth Percent” value (OVCAR-3; OVCAR-3, 1.00E-5 Molar) was 102.08%, the inhibition at 10 µM (OVCAR-4; Homo sapiens, OVCAR-4, 10 μM, read-out: Percentage growth inhibition (GI%)) was 71% and the “Growth Percent” value (OVCAR-4; OVCAR-4, 1.00E-5 Molar) was 29.55%. The inhibition at 10 µM (OVCAR-5; Homo sapiens, OVCAR-5, 10 μM, read-out: Percentage growth inhibition (GI%)) was < 10%, the “Growth Percent” value (OVCAR-5; OVCAR-5, 1.00E-5 Molar) was 98.04% and the inhibition at 10 µM (OVCAR-8; Homo sapiens, OVCAR-8, 10 μM, read-out: Percentage growth inhibition (GI%)) was 53%. For the same molecule, the “Growth Percent” value (OVCAR-8; OVCAR-8, 1.00E-5 Molar) was 47.38%, the inhibition at 10 µM (SK-OV-3; Homo sapiens, SK-OV-3, 10 μM, read-out: Percentage growth inhibition (GI%)) was 26% and the “Growth Percent” value (SK-OV-3; SK-OV-3, 1.00E-5 Molar) was 74.76%. For the same molecule, the “Growth Percent” value (786-0; 786-0, 1.00E-5 Molar) was 11.07%, the inhibition at 10 µM (786-0; Homo sapiens, 786-0, 10 μM, read-out: Percentage growth inhibition (GI%)) was 89% and the “Growth Percent” value (A498; A498, 1.00E-5 Molar) was 71.94%. For the same molecule, the inhibition at 10 µM (A498; Homo sapiens, A498, 10 μM, read-out: Percentage growth inhibition (GI%)) was 29%, the inhibition at 10 µM (RXF 393; Homo sapiens, RXF 393, 10 μM, read-out: Percentage growth inhibition (GI%)) was 42% and the “Growth Percent” value (RXF 393; RXF 393, 1.00E-5 Molar) was 58.20%. For the same molecule, the “Growth Percent” value (SN12C; 1.00E-5 Molar) was 64.38%, the inhibition at 10 µM (SN12C; [1]) was 36% and the inhibition at 10 µM (TK-10; Homo sapiens, TK-10, 10 μM, read-out: Percentage growth inhibition (GI%)) was 40%. The “Growth Percent” value (TK-10; TK-10, 1.00E-5 Molar) was 60.42%, the inhibition at 10 µM (UO-31; Homo sapiens, UO-31, 10 μM, read-out: Percentage growth inhibition (GI%)) was 19% and the “Growth Percent” value (UO-31; UO-31, 1.00E-5 Molar) was 81.72%. The “Growth Percent” value (DU-145; DU-145, 1.00E-5 Molar) was 72.24%, the inhibition at 10 µM (DU-145; Homo sapiens, DU-145, 10 μM, read-out: Percentage growth inhibition (GI%)) was 28% and the inhibition at 10 µM (PC-3; Homo sapiens, PC-3, 10 μM, read-out: Percentage growth inhibition (GI%)) was 19%. For the same molecule, the “Growth Percent” value (PC-3; PC-3, 1.00E-5 Molar) was 81.42%, the “Growth Percent” value (BT-549; BT-549, 1.00E-5 Molar) was 50.44% and the inhibition at 10 µM (BT-549; Homo sapiens, BT-549, 10 μM, read-out: Percentage growth inhibition (GI%)) was 50%. The “Growth Percent” value (HS 578T; 1.00E-5 Molar) was 39.96%, the inhibition at 10 µM (HS 578T; [1]) was 61% and the inhibition at 10 µM (MCF7; Homo sapiens, MCF7, 10 μM, read-out: Percentage growth inhibition (GI%)) was 35%. For the same molecule, the “Growth Percent” value (MCF7; MCF7, 1.00E-5 Molar) was 65.14%, the inhibition at 10 µM (MDA-MB-231; Homo sapiens, MDA-MB-231, 10 μM, read-out: Percentage growth inhibition (GI%)) was 60% and the “Growth Percent” value (MDA-MB-231; MDA-MB-231/ATCC, 1.00E-5 Molar) was 40.48%. The inhibition at 10 µM (MDA-MB-468; Homo sapiens, MDA-MB-468, 10 μM, read-out: Percentage growth inhibition (GI%)) was 17%, the “Growth Percent” value (MDA-MB-468; MDA-MB-468, 1.00E-5 Molar) was 83.00% and the “Growth Percent” value (T-47D; 1.00E-5 Molar) was 60.36%. The inhibition at 10 µM (T-47D; Homo sapiens, T47D, 10 μM, read-out: Percentage growth inhibition (GI%)) was 40% and the melting point was 253 to 254 °C.
